Data taken from patent US10383845B2 (priority 2017, dated 2019).
Entries after “also recorded” stand apart in the source; their conditions may differ. Where two headings read alike, the source gives them in different places.

Tests used:
[1] = biological target: Vitamin K Oxide Reductase (Homo sapiens, UniProt Q9BQB6); conditions: cited from earlier work
[2] = tested on: bacteria; conditions: cited from earlier work
[3] = tested on: patients suffering from chronic periodontitis; assay: Observation of patients suffering from chronic periodontitis under continued systemic medication with Warfarin; format: in vivo, human
Description: Such observations had not been reported in the medical literature or anywhere else.

[4] = Warfarin in plasma and saliva (oral fluid) of 14 patients undergoing Warfarin therapy (Lomonaco et al. 2014); format: in vivo, human; conditions: inferred from the findings of Lomonaco
[5] = biological target: T1, human VKOR (Homo sapiens, UniProt Q9BQB6); assay: Inhibition of the human VKOR by unbound plasma Warfarin; format: in vivo; conditions: converted from ng/ml
T1 construct: from tissue
T1 sequence (Q9BQB6 whole entry): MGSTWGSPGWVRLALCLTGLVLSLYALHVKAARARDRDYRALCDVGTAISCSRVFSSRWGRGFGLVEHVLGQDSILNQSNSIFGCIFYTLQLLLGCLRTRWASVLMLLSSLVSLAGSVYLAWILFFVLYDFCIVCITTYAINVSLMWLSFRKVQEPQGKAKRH

[6] = tested on: bacterial VKOR of several strains of mycobacteria; conditions: cited from earlier work
[7] = biological target: T1, human VKOR; conditions: cited from earlier work

Sequence of Vitamin K Oxide Reductase (Q9BQB6 whole entry): as above

SMILES | sensitivity of Vitamin K Oxide Reductase to inhibition [1] | antibacterial properties [2] | buildup of dental plaque and tartar [3] | chronic periodontitis / periodontal disease [3] | frequency and severity of gingival inflammation occurrences [3] | concentration in oral fluid sufficient to be effective [4] | unbound plasma concentration sufficient for effective inhibition of the human VKOR [5] [nM] | concentration at which bacterial VKOR was inhibited [6] [mM] | unbound plasma concentration sufficient for effective inhibition of the human VKOR [7] [ng/mL]
O=c1oc2ccccc2c(O)c1Cc1c(O)c2ccccc2oc1=O [Dicumarol] | highly sensitive to inhibition | marked antibacterial properties | – | – | – | – | – | – | –
CC(=O)CC(c1ccccc1)c1c(O)c2ccccc2oc1=O (stereo not shown) [Warfarin] | highly sensitive to inhibition | – | significant decrease; also recorded: reduced | marked improvement; also recorded: significant reduction | reduction; also recorded: reduced | less than 1×10^−7 M | ~30 | 1.6 to 4.5 | 9 ± 4
